Experimental data as given in US20240325383A1, “Small Molecule Targeting of BRD4 for Treatment of COVID-19” (Board of Regents, The University of Texas System, priority 2023, published 2024).
Entries after “also recorded” stand apart in the source; their conditions may differ.

Columns and labels:
[1] = tested on: CXCL10 expression; type: cell-based, human
[2] = tested on: rSARS-COV-2mNG; type: cell-based, SARS-COV-2
[3] = cited from earlier work

SMILES | CXCL10 expression [1] | virus titer (FFA) [2] | solubility in 95% ethanol ([3]; 95% ethanol) | solubility in dimethyl sulfoxide ([3]; dimethyl sulfoxide) | solubility in dimethylformamide ([3]; dimethylformamide) | solubility in methanol ([3]; methanol) | solubility in water ([3]; water)
COc1cc(OC)c2c(=O)cc(-c3cc(C)c(OCCCN4CCN(C)CC4)c(C)c3)oc2c1 [ZL0969] | reduces expression levels of CXCL10; also recorded: reduce CXCL10 expression | significantly reduce virus titer | – | – | – | – | –
CCC(=O)O[C@]1(C(=O)SCF)[C@H](C)C[C@H]2[C@@H]3C[C@H](F)C4=CC(=O)C=C[C@]4(C)[C@@]3(F)[C@@H](O)C[C@@]21C [Fluticasone propionate] | – | – | slightly soluble | freely soluble | freely soluble | slightly soluble | practically insoluble
